Measured values taken from the supplement of paper PMC4862054.

How the values were obtained:
Settings in all cases: incubation time: 72 h
CAL-148 [1] = test: drug sensitivity score (DSS), CellTiter-Blue viability (DSS (AUC-based score)); higher = stronger viability inhibition; extreme values may be limits of the assay
Experimental: (§1)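 DSRT with the CellTiter-Blue (resazurin reduction) viability readout, fluorescence 560/590 nm, 72 h incubation. Plates were normalised to DMSO and benzethonium chloride controls. DSS is computed from the area under the fitted dose-response curve (5 or 9 concentrations).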

MDA-MB-453 [2] = test: as above
Experimental: as §1

HCC1143 [3] = test: as above
Experimental: as §1

MFM-223 [4] = test: as above
Experimental: as §1

CAL-120 = test: as above
Experimental: as §1

BT-549 = test: as above
Experimental: as §1

HCC1937 = test: as above
Experimental: as §1

DU-4475 = test: as above
Experimental: as §1

MDA-MB-436 [5] = test: as above
Experimental: as §1

HDQ-P1 [6] = test: as above
Experimental: as §1

CAL-51 = test: as above
Experimental: as §1

HCC1599 [7] = test: as above
Experimental: as §1

CAL-85-1 [8] = test: as above
Experimental: as §1

Hs578T [9] = test: as above
Experimental: as §1

CAL-148 [10] = test: drug sensitivity score (DSS), CellTox Green (DSS (AUC-based score)); higher = stronger drug effect (viability inhibition or cytotoxicity); extreme values may be limits of the assay
Procedure, shortened: (§2)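 Breast cancer cell lines were seeded in 20 µl suspension into 384-well plates already holding compound and incubated for 72 h. Each compound was tested at 5 concentrations in 10-fold steps across its own 10,000-fold range. Plates were normalised to 0.1 % DMSO and a positive kill control after CellTox Green and then CellTiter-Glo readings. The area under the fitted dose-response curve served as the basis for the drug sensitivity score.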

MDA-MB-453 [11] = test: as above
Procedure, shortened: as §2

HCC1143 [12] = test: as above
Procedure, shortened: as §2

MDA-MB-231 = test: as above
Procedure, shortened: as §2

MFM-223 [13] = test: as above
Procedure, shortened: as §2

MDA-MB-436 [14] = test: as above
Procedure, shortened: as §2

HDQ-P1 [15] = test: as above
Procedure, shortened: as §2

HCC1599 [16] = test: as above
Procedure, shortened: as §2

MCF-10A = test: as above
Procedure, shortened: as §2

BT-474 = test: as above
Procedure, shortened: as §2

CAL-85-1 [17] = test: as above
Procedure, shortened: as §2

Hs578T [18] = test: as above
Procedure, shortened: as §2

Which results are given for `CCC1(c2ccc(N)cc2)CCC(=O)NC1=O` (stereo not given) [Aminoglutethimide]?
drug sensitivity score (CAL-148 [1]): 0; drug sensitivity score (MDA-MB-453 [2]): 0; drug sensitivity score (HCC1143 [3]): 0; drug sensitivity score (MFM-223 [4]): 0; drug sensitivity score (CAL-120): 0; drug sensitivity score (BT-549): 0; drug sensitivity score (HCC1937): 0; drug sensitivity score (DU-4475): 0; drug sensitivity score (MDA-MB-436 [5]): 0; drug sensitivity score (HDQ-P1 [6]): 0; drug sensitivity score (CAL-51): 0; drug sensitivity score (HCC1599 [7]): 0; drug sensitivity score (CAL-85-1 [8]): 0; drug sensitivity score (Hs578T [9]): 0; drug sensitivity score (CAL-148 [10]): 0; drug sensitivity score (MDA-MB-453 [11]): 0; drug sensitivity score (HCC1143 [12]): 0; drug sensitivity score (MDA-MB-231): 0; drug sensitivity score (MFM-223 [13]): 0; drug sensitivity score (MDA-MB-436 [14]): 0; drug sensitivity score (HDQ-P1 [15]): 0; drug sensitivity score (HCC1599 [16]): 0; drug sensitivity score (MCF-10A): 0; drug sensitivity score (BT-474): 0; drug sensitivity score (CAL-85-1 [17]): 0; drug sensitivity score (Hs578T [18]): 0

Which results are given for `CN(N=O)C(=O)N[C@@H](C=O)[C@@H](O)[C@H](O)[C@H](O)CO` [Streptozocin]?
drug sensitivity score (CAL-148 [1]): 0; drug sensitivity score (MDA-MB-453 [2]): 0; drug sensitivity score (HCC1143 [3]): 0; drug sensitivity score (MFM-223 [4]): 0; drug sensitivity score (CAL-120): 0; drug sensitivity score (BT-549): 0; drug sensitivity score (HCC1937): 3.78; drug sensitivity score (DU-4475): 0; drug sensitivity score (MDA-MB-436 [5]): 0; drug sensitivity score (HDQ-P1 [6]): 0; drug sensitivity score (CAL-51): 0; drug sensitivity score (HCC1599 [7]): 0; drug sensitivity score (CAL-85-1 [8]): 0; drug sensitivity score (Hs578T [9]): 0; drug sensitivity score (CAL-148 [10]): 0; drug sensitivity score (MDA-MB-453 [11]): 0; drug sensitivity score (HCC1143 [12]): 0; drug sensitivity score (MDA-MB-231): 0; drug sensitivity score (MFM-223 [13]): 0; drug sensitivity score (MDA-MB-436 [14]): 0; drug sensitivity score (HDQ-P1 [15]): 0; drug sensitivity score (HCC1599 [16]): 0; drug sensitivity score (MCF-10A): 0; drug sensitivity score (BT-474): 0; drug sensitivity score (CAL-85-1 [17]): 0; drug sensitivity score (Hs578T [18]): 0

Which drug sensitivity score (CAL-148 [1]) does the source give for `Cc1ccc(-n2nc(C(C)(C)C)cc2NC(=O)Nc2ccc(OCCN3CCOCC3)c3ccccc23)cc1` [Doramapimod] here?
The drug sensitivity score was 0.

And the drug sensitivity score (MDA-MB-453 [2])?
Its drug sensitivity score is 0.

What about the drug sensitivity score (HCC1143 [3]) of the same compound?
The drug sensitivity score was 0.

And the drug sensitivity score (MFM-223 [4])?
The drug sensitivity score was 0.

And the drug sensitivity score (CAL-120)?
The drug sensitivity score was 0.

What about the drug sensitivity score (BT-549) of the same compound?
Its drug sensitivity score is 0.

And the drug sensitivity score (HCC1937)?
Its drug sensitivity score is 0.

What about the drug sensitivity score (DU-4475) of the same compound?
The drug sensitivity score was 0.

What about the drug sensitivity score (MDA-MB-436 [5]) of the same compound?
Its drug sensitivity score is 0.

And the drug sensitivity score (HDQ-P1 [6])?
Its drug sensitivity score is 0.

What about the drug sensitivity score (CAL-51) of the same compound?
Its drug sensitivity score is 0.

What about the drug sensitivity score (HCC1599 [7]) of the same compound?
Its drug sensitivity score is 0.

And the drug sensitivity score (CAL-85-1 [8])?
Its drug sensitivity score is 6.15.

What about the drug sensitivity score (Hs578T [9]) of the same compound?
Its drug sensitivity score is 0.

And the drug sensitivity score (CAL-148 [10])?
Its drug sensitivity score is 0.

What about the drug sensitivity score (MDA-MB-453 [11]) of the same compound?
Its drug sensitivity score is 0.

What about the drug sensitivity score (HCC1143 [12]) of the same compound?
Its drug sensitivity score is 0.

What about the drug sensitivity score (MDA-MB-231) of the same compound?
The drug sensitivity score was 0.

And the drug sensitivity score (MFM-223 [13])?
The drug sensitivity score was 0.

And the drug sensitivity score (MDA-MB-436 [14])?
Its drug sensitivity score is 2.62.

What about the drug sensitivity score (HDQ-P1 [15]) of the same compound?
Its drug sensitivity score is 0.

What about the drug sensitivity score (HCC1599 [16]) of the same compound?
The drug sensitivity score was 0.

What about the drug sensitivity score (MCF-10A) of the same compound?
Its drug sensitivity score is 0.

What about the drug sensitivity score (BT-474) of the same compound?
The drug sensitivity score was 0.

What about the drug sensitivity score (CAL-85-1 [17]) of the same compound?
The drug sensitivity score was 0.

What about the drug sensitivity score (Hs578T [18]) of the same compound?
Its drug sensitivity score is 3.19.

With `N.N.[Cl][Pt][Cl]` [Cisplatin] as the compound, how does the drug sensitivity score (CAL-148 [1]) read?
Its drug sensitivity score is 0.

What about the drug sensitivity score (MDA-MB-453 [2]) of the same compound?
Its drug sensitivity score is 0.

What about the drug sensitivity score (HCC1143 [3]) of the same compound?
Its drug sensitivity score is 0.

And the drug sensitivity score (MFM-223 [4])?
Its drug sensitivity score is 0.

What about the drug sensitivity score (CAL-120) of the same compound?
Its drug sensitivity score is 0.

And the drug sensitivity score (BT-549)?
The drug sensitivity score was 0.

And the drug sensitivity score (HCC1937)?
The drug sensitivity score was 0.

And the drug sensitivity score (DU-4475)?
Its drug sensitivity score is 0.

And the drug sensitivity score (MDA-MB-436 [5])?
The drug sensitivity score was 0.

What about the drug sensitivity score (HDQ-P1 [6]) of the same compound?
The drug sensitivity score was 0.

What about the drug sensitivity score (CAL-51) of the same compound?
The drug sensitivity score was 0.

And the drug sensitivity score (HCC1599 [7])?
Its drug sensitivity score is 0.

What about the drug sensitivity score (CAL-85-1 [8]) of the same compound?
Its drug sensitivity score is 0.

What about the drug sensitivity score (Hs578T [9]) of the same compound?
The drug sensitivity score was 0.

What about the drug sensitivity score (CAL-148 [10]) of the same compound?
The drug sensitivity score was 0.

And the drug sensitivity score (MDA-MB-453 [11])?
Its drug sensitivity score is 0.

And the drug sensitivity score (HCC1143 [12])?
Its drug sensitivity score is 0.

What about the drug sensitivity score (MDA-MB-231) of the same compound?
Its drug sensitivity score is 0.

And the drug sensitivity score (MFM-223 [13])?
The drug sensitivity score was 0.

And the drug sensitivity score (MDA-MB-436 [14])?
Its drug sensitivity score is 0.

And the drug sensitivity score (HDQ-P1 [15])?
Its drug sensitivity score is 0.

What about the drug sensitivity score (HCC1599 [16]) of the same compound?
Its drug sensitivity score is 0.

And the drug sensitivity score (MCF-10A)?
Its drug sensitivity score is 0.

And the drug sensitivity score (BT-474)?
The drug sensitivity score was 0.

What about the drug sensitivity score (CAL-85-1 [17]) of the same compound?
Its drug sensitivity score is 0.

What about the drug sensitivity score (Hs578T [18]) of the same compound?
Its drug sensitivity score is 0.

Which drug sensitivity score (CAL-148 [1]) does the source give for `CN(C)/N=N/c1[nH]cnc1C(N)=O` [Dacarbazine] here?
The drug sensitivity score was 0.

And the drug sensitivity score (MDA-MB-453 [2])?
Its drug sensitivity score is 0.

And the drug sensitivity score (HCC1143 [3])?
Its drug sensitivity score is 0.

What about the drug sensitivity score (MFM-223 [4]) of the same compound?
The drug sensitivity score was 0.

What about the drug sensitivity score (CAL-120) of the same compound?
Its drug sensitivity score is 0.

What about the drug sensitivity score (BT-549) of the same compound?
Its drug sensitivity score is 0.

And the drug sensitivity score (HCC1937)?
Its drug sensitivity score is 0.

What about the drug sensitivity score (DU-4475) of the same compound?
The drug sensitivity score was 0.

What about the drug sensitivity score (MDA-MB-436 [5]) of the same compound?
Its drug sensitivity score is 0.

And the drug sensitivity score (HDQ-P1 [6])?
The drug sensitivity score was 0.

And the drug sensitivity score (CAL-51)?
The drug sensitivity score was 0.

What about the drug sensitivity score (HCC1599 [7]) of the same compound?
The drug sensitivity score was 0.

What about the drug sensitivity score (CAL-85-1 [8]) of the same compound?
Its drug sensitivity score is 0.

What about the drug sensitivity score (Hs578T [9]) of the same compound?
Its drug sensitivity score is 0.

And the drug sensitivity score (CAL-148 [10])?
Its drug sensitivity score is 2.9.

And the drug sensitivity score (MDA-MB-453 [11])?
The drug sensitivity score was 0.

What about the drug sensitivity score (HCC1143 [12]) of the same compound?
Its drug sensitivity score is 0.

What about the drug sensitivity score (MDA-MB-231) of the same compound?
The drug sensitivity score was 0.

And the drug sensitivity score (MFM-223 [13])?
Its drug sensitivity score is 0.

What about the drug sensitivity score (MDA-MB-436 [14]) of the same compound?
The drug sensitivity score was 0.

What about the drug sensitivity score (HDQ-P1 [15]) of the same compound?
Its drug sensitivity score is 0.

What about the drug sensitivity score (HCC1599 [16]) of the same compound?
The drug sensitivity score was 0.

What about the drug sensitivity score (MCF-10A) of the same compound?
The drug sensitivity score was 0.

And the drug sensitivity score (BT-474)?
Its drug sensitivity score is 0.

And the drug sensitivity score (CAL-85-1 [17])?
The drug sensitivity score was 0.

And the drug sensitivity score (Hs578T [18])?
Its drug sensitivity score is 0.
